Data: patent publication US20110091945A1, “METHODS OF INCREASING BIOMASS PRODUCTIVITY, LIPID INDUCTION, AND CONTROLLING METABOLITES IN ALGAE FOR PRODUCTION OF BIOFUELS USING BIOCHEMICAL STIMULANTS” (priority 2009, published 2011)
Values joined by “and” are separate entries in the source; they are usually repeats but may differ in a detail not shown here. Identical values can stand only once. Like-named read-outs stand apart in the source and are kept apart here.

Tests used:
Anabaena = settings: cited from earlier work; for inhibition: 500 mg malathion L^−1
Chlorella sorokiniana [1] = assay: Malathion twelve day growth study: biomass and growth rates; format: cell-based, Chlorella sorokiniana (UTEX 2805)
Method: (§1) • Analysis of growth parameters: Chlorophyll a was estimated following the method of Porra et al., (1989) Biochem. Biophys. Acta 975, 384-394. Biomass estimations were performed by filtering the cultures through pre-dried and weighed Whatman GF/C glass fiber filters (4.7 cm diameter; 1.2 μm pore size). After washing with 0.65 M ammonium formate, filters were then dried at 60° C. overnight and cooled in a desiccant pouch before re-weighing. Specific growth rates, divisions per day, and generation times were estimated based upon biomass data for days 6 to 9 and days 9 to 12 using the following equations:
Specific growth rate (μ, d^−1)=ln(N2/N1)/(t2−t1)
Divisions per day (Div.day^−1)=μ/ln2
Generation time (d)=1/Div.day^−1
Where N1 and N2=biomass at time 1 (t1) and time 2 (t2), respectively.
(§2) • Test strain: Chlorella sorokiniana (UTEX 2805) was obtained from UTEX Culture Collections and maintained in BG11 medium (Stanier et al., (1971) Bacteria Rev. 35: 171-205, incorporated herein in its entirety). The pH of culture medium was adjusted to 7.5±0.2 before inoculation and the alga was maintained in a temperature controlled growth chamber at 25±1° C. and 100±10 μmol m^−2 s^−1 light intensity with 12/12 h L/D cycle provided by cool white fluorescent (6500 K) T-8 bulbs. • Pesticide: A twelve day time-scale growth study was conducted to evaluate the effect of pesticide toxicity on algal growth and metabolism. The pesticide malathion (Spectracide, 50% v/v) was used and added to fresh BG11 medium to obtain final concentrations of 70, 140, 280 and 560 mg of malathion L^−1 for the treatments. […] After sterilization, C. sorokiniana was added as inoculum to obtain an initial biomass concentration of 0.075 g L^−1 in all the treatments in triplicates. The cultures were incubated in the growth chamber as explained above. For each sampling period, three randomly chosen flasks of each treatment were removed and then refrigerated at 4° C. until further analysis.

Chlorogloea fritschii = settings: cited from earlier work
algae = settings: applied alone at half solubility in water (75 mg L^−1); cited from earlier work
Chlorella sorokiniana [2] = assay: Malathion twelve day growth study: chlorophyll a and chl a/b ratio; format: cell-based, Chlorella sorokiniana (UTEX 2805)
Method: as §1, §2

[3] = tested on: Stigeoclonium, Tribonema, and Vaucheria; settings: 1 μg L^−1; cited from earlier work
Chlorella sorokiniana [4] = assay: Malathion growth study: chlorophyll fluorescence kinetics by PAM; format: cell-based, Chlorella sorokiniana (UTEX 2805); settings: day 12; for Fv/Fm (maximum photosynthetic efficiency of PSII): control 0.672
Method: A 2% neutral lipid corn standard supplied by Ankom was used as an analytical standard. Carbon, hydrogen, nitrogen, and sulfur percentages in the biomass were estimated using a LECO CHNS932 elemental analyzer. • Chlorophyll fluorescence kinetics by PAM: The Pulse-Amplitude-Modulation Fluorometer (Mini-PAM, WALZ GmBH, Effeltrich, Germany) used for chlorophyll a fluorescence measurements were performed in real-time using the mini-PAM's internal halogen light as the actinic light source for fluorescence measurements of maximum photosynthetic yield, effective photosynthetic yield (PSII), electron transfer rate (ETR), photosynthetic quenching (qP) and non photochemical quenching (NPQ). The algal samples were dark adapted for one hour prior to the analysis. A small quantity (2.5 mL) of dark adopted sample in a 10 mm path length cuvette was placed in a dark chamber. The PAM fluorometer was connected to the sample via a fiber optic bundle. After stabilization of the auto fluorescence, the probing light beam was turned on and the baseline fluorescence (Fo) was recorded. A single saturating flash (1 s, 8,000 μmol m^−2 s^−1) was then applied to reach maximal fluorescence (Fm). The maximum photosynthetic efficiency of PSII was estimated as in the following equation for the dark adopted culture:
The induction kinetics were initiated by turning on the actinic light source (100 μmol m^−2 s^−1). During the induction curve under actinic light (AL) exposure, saturating light pulses (1 s; 8,000 μmol m^−2 s^−1) were given every 20 seconds to determine the effective quantum yield (Φ PSII), electron transfer rates (ETR), photochemical (qP) and non-photochemical (NPQ) quenching. The qP value was determined by the PAM data analysis software, which uses Fo as opposed to Fo′ in the equation providing a estimate of qP rather than an absolute measurement using far-red light exposure. These tests were done in duplicates.
as §2

Chlorella pyrenoidosa = settings: 100 mg of malathion L^−1; cited from earlier work
[5] = T1, 70 mg malathion L^−1, day 6 to 9
[6] = T1, 70 mg malathion L^−1, day 9 to 12
[7] = T2, 140 mg malathion L^−1, day 6 to 9
[8] = T2, 140 mg malathion L^−1, day 9 to 12

## CCOC(=O)CC(SP(=S)(OC)OC)C(=O)OCC (centres unmarked) [malathion, 2-(dimethoxyphosphinothioylthio)butanedioic acid diethyl ester]
Anabaena; 500 mg L^−1
  resistance to malathion, in words: highly resistant
Anabaena; day 5
  inhibition: 64%
Anabaena; day 30
  inhibition: 15%
Chlorella sorokiniana [1]
  malathion concentration the alga can withstand / tolerated: up to 140 mg L^−1
Chlorella sorokiniana [1]; 70 mg malathion L^−1
  time within which the alga could metabolize the pesticide and overcome the stress: ≤ 6 days
Chlorella sorokiniana [1]; 70 mg malathion L^−1, day 3
  inhibition in biomass: 25%
Chlorella sorokiniana [1]; 70 mg malathion L^−1, day 6
  inhibition in biomass: 37%
Chlorella sorokiniana [1]; 70 mg malathion L^−1, day 9
  inhibition in biomass: 35%
Chlorella sorokiniana [1]; 70 mg malathion L^−1, day 12
  inhibition in biomass: 18%
Chlorella sorokiniana [1]; 140 mg malathion L^−1
  time within which the alga could metabolize the pesticide and overcome the stress: ≤ 9 days
Chlorella sorokiniana [1]; 140 mg malathion L^−1, day 3
  inhibition of biomass: 35%
Chlorella sorokiniana [1]; 140 mg malathion L^−1, day 6
  inhibition of biomass: 60%
Chlorella sorokiniana [1]; 140 mg malathion L^−1, day 9
  inhibition of biomass: 68%
Chlorella sorokiniana [1]; 140 mg malathion L^−1, day 12
  inhibition of biomass: 49%
Chlorella sorokiniana [1]; 270 mg malathion L^−1
  effect on growth of the alga, in words: lethal
Chlorella sorokiniana [1]; 280 mg malathion L^−1 (T3)
  effect on growth of the alga, in words: lethal
Chlorella sorokiniana [1]; 280 mg malathion L^−1, day 3
  inhibition of biomass: 48%
Chlorella sorokiniana [1]; 280 mg malathion L^−1, day 6
  inhibition of biomass: 78%
Chlorella sorokiniana [1]; 280 mg malathion L^−1, day 9
  inhibition of biomass: 89%
Chlorella sorokiniana [1]; 280 mg malathion L^−1, day 12
  inhibition of biomass: 100%
Chlorella sorokiniana [1]; 540 mg malathion L^−1
  effect on growth of the alga, in words: lethal
Chlorella sorokiniana [1]; 560 mg malathion L^−1 (T4)
  effect on growth of the alga, in words: lethal effects
Chlorella sorokiniana [1]; [5]
  Divisions per day: 0.23
  Generation time: 4.4 days
  Increase in biomass production: 1.61 times
  Specific growth rate (μ): 0.16 day⁻¹
  Δ Biomass: 0.103 g/L
Chlorella sorokiniana [1]; [6]
  Divisions per day: 0.27
  Generation time: 3.7 days
  Increase in biomass production: 1.8 times and 1.76 times
  Specific growth rate (μ): 0.19 day⁻¹
  Δ Biomass: 0.206 g/L
Chlorella sorokiniana [1]; [7]
  Divisions per day: 0.12
  Generation time: 8.7 days
  Increase in biomass production: 1.27 times
  Specific growth rate (μ): 0.08 day⁻¹
  Δ Biomass: 0.029 g/L
Chlorella sorokiniana [1]; [8]
  Divisions per day: 0.38
  Generation time: 2.6 days
  Increase in biomass production: 2.2 times and 2.20 times
  Specific growth rate (μ): 0.26 day⁻¹
  Δ Biomass: 0.163 g/L
Chlorogloea fritschii
  concentration that permanently suppressed the growth: 200 mg/L
algae
  toxicity to algae, in words: toxic to algae
Chlorella sorokiniana [2]; 70 mg malathion L^−1, day 0
  ratio of chl a to chl b: approximately 0.85
Chlorella sorokiniana [2]; 70 mg malathion L^−1, day 3
  inhibition in chl a: 45%
Chlorella sorokiniana [2]; 70 mg malathion L^−1, day 6
  inhibition in chl a: 49%
Chlorella sorokiniana [2]; 70 mg malathion L^−1, day 9
  inhibition in chl a: 51%
Chlorella sorokiniana [2]; 70 mg malathion L^−1, day 12
  inhibition in chl a: 26%
  ratio of chl a to chl b: approximately 0.90
Chlorella sorokiniana [2]; 140 mg malathion L^−1, day 0
  ratio of chl a to chl b: approximately 0.85
Chlorella sorokiniana [2]; 140 mg malathion L^−1, day 12
  ratio of chl a to chl b: approximately 0.90
Chlorella sorokiniana [2]; 280 mg malathion L^−1
  decrease of chl a/b ratio: approximately 100%
[3]
  inhibition of chlorophyll production: 100%
Chlorella sorokiniana [4]; 70 mg malathion L^−1
  effective photosynthetic yield, higher over the control: about 1.2 times
  electron transfer rate, higher over the control: about 1.2 times
  non-photochemical quenching (NPQ) versus control, in words: comparable with the control
  photochemical quenching, higher over the control: about 1.2 times
  Fv/Fm (maximum photosynthetic efficiency of PSII): 0.671
Chlorella sorokiniana [4]; 140 mg malathion L^−1
  effective photosynthetic yield, higher over the control: about 1.2 times
  electron transfer rate, higher over the control: about 1.2 times
  non-photochemical quenching (NPQ), less than the control: 18%
  photochemical quenching, higher over the control: about 1.2 times
  Fv/Fm (maximum photosynthetic efficiency of PSII): 0.641
Chlorella pyrenoidosa
  effect on growth, in words: very little effect on the growth
